{
  "source": "patent US20150105252A1",
  "about": "“SUBSTITUTED PYRAZOLES AS HERBICIDES” (E I DU PONT DE NEMOURS AND COMPANY, priority 2013, published 2015)",
  "key": {"[1]": {"test_system": "oilseed rape", "assay": "Test C postemergence", "assay_type": "in vivo, Brassica napus", "method_in_brief": "(§1)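 Seeds sown in loam–sand blend and treated preemergence with test chemicals in non-phytotoxic solvent with surfactant; postemergence plants in peat-based medium, treated at 2–18 cm (1- to 4-leaf stage). Greenhouse 13 to 15 days, then visual rating versus controls, 0 (no effect) to 100 (complete control).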"}, "[2]": {"test_system": "pigweed", "assay": "Test A postemergence", "assay_type": "in vivo, Amaranthus retroflexus", "method_in_brief": "(§2)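 After sowing in a sand–loam mix, pots received compound preemergence by directed soil spray, or postemergence once plants reached the one- to two-leaf stage (2–10 cm). Formulation contained surfactant in a non-phytotoxic solvent. Injury was scored visually after ~10 greenhouse days, 0–100 scale.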"}, "[3]": {"test_system": "kochia", "assay": "Test C postemergence", "assay_type": "in vivo, Kochia scoparia", "method_in_brief": "as §1"}, "[4]": {"test_system": "corn", "assay": "Test A postemergence", "assay_type": "in vivo, Zea mays", "method_in_brief": "as §2"}, "[5]": {"test_system": "morningglory", "assay": "Test A postemergence", "assay_type": "in vivo, Ipomoea spp.", "method_in_brief": "as §2"}, "[6]": {"test_system": "barnyardgrass", "assay": "Test C preemergence", "assay_type": "in vivo, Echinochloa crus-galli", "details": "for Barnyardgrass plant response rating: preemergence", "method_in_brief": "as §1"}, "[7]": {"test_system": "nutsedge, yellow", "assay": "Test C preemergence", "assay_type": "in vivo, Cyperus esculentus", "details": "for Nutsedge, Yellow plant response rating: preemergence", "method_in_brief": "as §1"}, "[8]": {"test_system": "barnyardgrass", "assay": "Test A preemergence", "assay_type": "in vivo, Echinochloa crus-galli", "details": "preemergence", "method_in_brief": "as §2"}, "[9]": {"test_system": "crabgrass, large", "assay": "Test A postemergence", "assay_type": "in vivo, Digitaria sanguinalis", "method_in_brief": "as §2"}, "[10]": {"test_system": "barnyardgrass", "assay": "Test A postemergence", "assay_type": "in vivo, Echinochloa crus-galli", "method_in_brief": "as §2"}, "[11]": {"test_system": "oat, wild", "assay": "Test C postemergence", "assay_type": "in vivo, Avena fatua", "method_in_brief": "as §1"}, "[12]": {"test_system": "ryegrass, Italian", "assay": "Test C postemergence", "assay_type": "in vivo, Lolium multiflorum", "method_in_brief": "as §1"}, "[13]": {"test_system": "crabgrass, large", "assay": "Test C preemergence", "assay_type": "in vivo, Digitaria sanguinalis", "details": "for Crabgrass, Large plant response rating: preemergence", "method_in_brief": "as §1"}, "[14]": {"test_system": "velvetleaf", "assay": "Test C preemergence", "assay_type": "in vivo, Abutilon theophrasti", "details": "for Velvetleaf plant response rating: preemergence", "method_in_brief": "as §1"}, "[15]": {"test_system": "soybean", "assay": "Test C postemergence", "assay_type": "in vivo, Glycine max", "method_in_brief": "as §1"}, "[16]": {"details": "Postemergence, 31 g ai/ha, visually evaluated after 13 to 15 days"}, "[17]": {"details": "postemergence, 62 g ai/ha, scale 0 to 100"}, "[18]": {"details": "postemergence, 250 g ai/ha, scale 0 to 100 (0 no effect, 100 complete control)"}, "[19]": {"details": "postemergence, 125 g ai/ha, scale 0 to 100, 0 no effect, 100 complete control"}, "[20]": {"details": "Postemergence, 500 g ai/ha, visual rating after approx. 10 days, 0 to 100 scale (0 no effect, 100 complete control)"}, "[21]": {"details": "postemergence, 125 g ai/ha, about 10 days, visual rating on 0 to 100 scale (0 no effect, 100 complete control)"}, "[22]": {"details": "62 g ai/ha, scale 0 to 100 (0 no effect, 100 complete control), 13 to 15 days"}, "[23]": {"details": "125 g ai/ha, scale 0 to 100, 0 is no effect, 100 is complete control"}, "[24]": {"details": "31 g ai/ha, visual rating, scale 0 to 100 (0 no effect, 100 complete control), 13 to 15 days"}},
  "data": [
    {"smiles": "CCc1cc(-c2ccc(C(F)(F)F)cc2)nn1Cc1ccnc(C(F)(F)F)c1", "note": "[Compound 110]", "values": [
      {"measurement": "Plant response rating (scale of 0 to 100 where 0 is no effect and 100 is complete control), Oilseed Rape", "setting": "[1]; [16]", "result": 60},
      {"measurement": "Oilseed Rape plant response rating", "setting": "[1]; [17]", "result": 85},
      {"measurement": "Plant response rating, Oilseed Rape", "setting": "[1]; [18]", "result": 90},
      {"measurement": "Plant response rating, Oilseed Rape", "setting": "[1]; [19]", "result": 90},
      {"measurement": "Pigweed plant response rating", "setting": "[2]; [20]", "result": 100},
      {"measurement": "Pigweed plant response rating", "setting": "[2]; [21]", "result": 100},
      {"measurement": "Plant response rating (scale of 0 to 100 where 0 is no effect and 100 is complete control), Kochia", "setting": "[3]; [16]", "result": 90},
      {"measurement": "Kochia plant response rating", "setting": "[3]; [17]", "result": 90},
      {"measurement": "Plant response rating, Kochia", "setting": "[3]; [18]", "result": 90},
      {"measurement": "Plant response rating, Kochia", "setting": "[3]; [19]", "result": 90},
      {"measurement": "Corn plant response rating", "setting": "[4]; [20]", "result": 90},
      {"measurement": "Corn plant response rating", "setting": "[4]; [21]", "result": 80},
      {"measurement": "Morningglory plant response rating", "setting": "[5]; [20]", "result": 100},
      {"measurement": "Morningglory plant response rating", "setting": "[5]; [21]", "result": 100},
      {"measurement": "Plant response rating (scale of 0 to 100), Barnyardgrass", "setting": "[6]; Preemergence, 250 g ai/ha", "result": 90},
      {"measurement": "Barnyardgrass plant response rating", "setting": "[6]; 31 g ai/ha, scale 0 to 100 (0 no effect, 100 complete control), 13 to 15 days", "result": 25},
      {"measurement": "Barnyardgrass plant response rating", "setting": "[6]; [22]", "result": 30},
      {"measurement": "Barnyardgrass plant response rating", "setting": "[6]; [23]", "result": 65},
      {"measurement": "Plant response rating (scale of 0 to 100), Nutsedge, Yellow", "setting": "[7]; Preemergence, 250 g ai/ha", "result": 5},
      {"measurement": "Nutsedge, Yellow plant response rating", "setting": "[7]; [22]", "result": 5},
      {"measurement": "Nutsedge, Yellow plant response rating", "setting": "[7]; [23]", "result": 5},
      {"measurement": "Barnyardgrass plant response rating", "setting": "[8]; 125 g ai/ha, visual injury, 0 to 100 scale, approx. 10 days", "result": 100},
      {"measurement": "Barnyardgrass plant response rating", "setting": "[8]; 500 g ai/ha, visual injury after approx. 10 days, 0 to 100 scale (0 no effect, 100 complete control)", "result": 100},
      {"measurement": "Crabgrass, Large plant response rating", "setting": "[9]; [20]", "result": 100},
      {"measurement": "Crabgrass, Large plant response rating", "setting": "[9]; [21]", "result": 70},
      {"measurement": "Barnyardgrass plant response rating", "setting": "[10]; [20]", "result": 90},
      {"measurement": "Barnyardgrass plant response rating", "setting": "[10]; [21]", "result": 80},
      {"measurement": "Plant response rating (scale of 0 to 100 where 0 is no effect and 100 is complete control), Oat, Wild", "setting": "[11]; [16]", "result": 5},
      {"measurement": "Oat, Wild plant response rating", "setting": "[11]; [17]", "result": 25},
      {"measurement": "Plant response rating, Oat, Wild", "setting": "[11]; [18]", "result": 35},
      {"measurement": "Plant response rating, Oat, Wild", "setting": "[11]; [19]", "result": 30},
      {"measurement": "Plant response rating (scale of 0 to 100 where 0 is no effect and 100 is complete control), Ryegrass, Italian", "setting": "[12]; [16]", "result": 20},
      {"measurement": "Ryegrass, Italian plant response rating", "setting": "[12]; [17]", "result": 20},
      {"measurement": "Plant response rating, Ryegrass, Italian", "setting": "[12]; [18]", "result": 40},
      {"measurement": "Plant response rating, Ryegrass, Italian", "setting": "[12]; [19]", "result": 35},
      {"measurement": "Plant response rating (scale of 0 to 100), Crabgrass, Large", "setting": "[13]; Preemergence, 250 g ai/ha", "result": 100},
      {"measurement": "Crabgrass, Large plant response rating", "setting": "[13]; [24]", "result": 95},
      {"measurement": "Crabgrass, Large plant response rating", "setting": "[13]; [22]", "result": 98},
      {"measurement": "Crabgrass, Large plant response rating", "setting": "[13]; [23]", "result": 100},
      {"measurement": "Plant response rating (scale of 0 to 100), Velvetleaf", "setting": "[14]; Preemergence, 250 g ai/ha", "result": 75},
      {"measurement": "Velvetleaf plant response rating", "setting": "[14]; [24]", "result": 50},
      {"measurement": "Velvetleaf plant response rating", "setting": "[14]; [22]", "result": 50},
      {"measurement": "Velvetleaf plant response rating", "setting": "[14]; [23]", "result": 70},
      {"measurement": "Plant response rating (scale of 0 to 100 where 0 is no effect and 100 is complete control), Soybean", "setting": "[15]; [16]", "result": 35},
      {"measurement": "Soybean plant response rating", "setting": "[15]; [17]", "result": 55},
      {"measurement": "Plant response rating, Soybean", "setting": "[15]; [18]", "result": 85},
      {"measurement": "Plant response rating, Soybean", "setting": "[15]; [19]", "result": 70}
    ]}
  ]
}
